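Test compounds were applied to cells in 96-well plates for 48 hours at 5 doses. GI50 marks 50% less growth. TGI: total growth inhibition.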
Columns and labels:
Assay in all cases: NCI tumour cell line growth inhibition, 48 h
[1] = test system: BT-549 breast
[2] = test system: COLO 205 colon
[3] = test system: SNB-19 CNS
[4] = test system: OVCAR-3 ovarian
[5] = test system: MCF7 breast
[6] = test system: MDA-MB-231 breast
[7] = test system: SN12C renal
[8] = test system: 786-0 renal
[9] = test system: MDA-MB-435
[10] = test system: HOP-92 NSCLC
[11] = test system: PC-3 prostate
[12] = test system: OVCAR-4 ovarian
[13] = test system: OVCAR-5 ovarian
[14] = test system: HT29 colon
[15] = test system: NCI-H522 lung
[16] = test system: SK-OV-3 ovarian
[17] = test system: SK-MEL-2 melanoma
[18] = test system: SK-MEL-28 melanoma
[19] = test system: NCI/ADR-RES ovarian
[20] = test system: HOP-62 NSCLC
[21] = test system: MOLT-4 leukemia
[22] = test system: MALME-3M melanoma
[23] = test system: SF-268 CNS
[24] = test system: A549 NSCLC
[25] = test system: SNB-75 CNS
[26] = test system: UACC-62 melanoma
[27] = test system: SR leukemia
[28] = test system: UACC-257 melanoma
[29] = test system: IGROV1 ovarian
[30] = test system: EKVX NSCLC
[31] = test system: NCI-H226 lung
[32] = test system: HCT-116 colon
[33] = test system: HS 578T breast
[34] = test system: M14 melanoma
[35] = test system: OVCAR-8 ovarian
[36] = test system: RPMI-8226 leukemia
[37] = test system: LOX IMVI melanoma
[38] = test system: NCI-H23 lung
[39] = test system: CCRF-CEM leukemia
[40] = test system: ACHN renal
[41] = test system: KM12 colon
[42] = test system: UO-31 renal
[43] = test system: U251 CNS
[44] = test system: K-562 leukemia
[45] = test system: CAKI-1 renal
[46] = test system: HCT-15 colon
[47] = test system: RXF 393 renal
[48] = test system: HL-60(TB) leukemia
[49] = test system: SK-MEL-5 melanoma
[50] = test system: TK-10 renal
[51] = test system: SF-295 CNS
[52] = test system: NCI-H460 lung
[53] = test system: MDA-N
[54] = test system: HCC-2998 colon
[55] = test system: SW-620 colon
[56] = test system: DU-145 prostate
[57] = test system: SF-539 CNS
[58] = test system: T-47D breast
[59] = test system: A498 renal

In the case of `COC1CC(NC(=O)C(F)(F)F)C(OC(C)=O)C(C)O1` (stereo not given), the TGI [1] is reported as greater than 100 µM, the TGI [2] is reported as greater than 100 µM and the TGI [3] is reported as greater than 100 µM. It also gave a TGI [4] greater than 100 µM, a TGI [5] greater than 100 µM and a TGI [6] greater than 100 µM. For the same compound, the TGI [7] was greater than 100 µM, the TGI [8] was greater than 100 µM and the TGI [9] was greater than 100 µM. The TGI [10] was greater than 100 µM, the TGI [11] was greater than 100 µM and the TGI [12] was greater than 100 µM. It also gave a TGI [13] greater than 100 µM, a TGI [14] greater than 100 µM and a TGI [15] greater than 100 µM. It also gave a TGI [16] greater than 100 µM, a TGI [17] greater than 100 µM and a TGI [18] greater than 100 µM. The TGI [19] was greater than 100 µM, the TGI [20] was greater than 100 µM and the TGI [21] was greater than 100 µM. For the same compound, the TGI [22] was greater than 100 µM, the TGI [23] was greater than 100 µM and the TGI [24] was greater than 100 µM. For the same compound, the TGI [25] was greater than 100 µM, the TGI [26] was greater than 100 µM and the TGI [27] was greater than 100 µM. The TGI [28] was greater than 100 µM, the TGI [29] was greater than 100 µM and the TGI [30] was greater than 100 µM. It also gave a TGI [31] greater than 100 µM, a TGI [32] greater than 100 µM and a TGI [33] greater than 100 µM. For the same compound, the TGI [34] was greater than 100 µM, the TGI [35] was greater than 100 µM and the TGI [36] was greater than 100 µM. It also gave a TGI [37] greater than 100 µM, a TGI [38] greater than 100 µM and a TGI [39] greater than 100 µM. It also gave a TGI [40] greater than 100 µM, a TGI [41] greater than 100 µM and a TGI [42] greater than 100 µM. The TGI [43] was greater than 100 µM, the TGI [44] was greater than 100 µM and the TGI [45] was greater than 100 µM. It also gave a TGI [46] greater than 100 µM, a TGI [47] greater than 100 µM and a TGI [48] greater than 100 µM. The TGI [49] was greater than 100 µM, the TGI [50] was greater than 100 µM and the TGI [51] was greater than 100 µM. For the same compound, the TGI [52] was greater than 100 µM, the TGI [53] was greater than 100 µM and the TGI [54] was greater than 100 µM. The TGI [55] was greater than 100 µM, the TGI [56] was greater than 100 µM and the TGI [57] was greater than 100 µM. For the same compound, the TGI [58] was greater than 100 µM.

`COc1ccc(CNc2nc3cc(N)cc(N)c3nc2-c2ccccc2)cc1` gave a GI50 [1] of 6.52 µM, a TGI [1] of 30.7 µM and a GI50 [2] of 15.5 µM. For the same compound, the TGI [2] was 34.1 µM, the GI50 [3] was 41.5 µM and the TGI [3] was greater than 100 µM. The GI50 [59] was greater than 100 µM, the TGI [59] was greater than 100 µM and the GI50 [4] was 2.23 µM. For the same compound, the TGI [4] was 7.77 µM, the GI50 [5] was 13.2 µM and the TGI [5] was 26.5 µM. It also gave a GI50 [6] of 2.9 µM, a TGI [6] of 13.8 µM and a GI50 [7] of 16.8 µM. For the same compound, the TGI [7] was 34.3 µM, the GI50 [8] was 15.1 µM and the TGI [8] was 41.4 µM. For the same compound, the GI50 [9] was 10.1 µM, the TGI [9] was 21.7 µM and the GI50 [10] was 13 µM. For the same compound, the TGI [10] was 37.2 µM, the GI50 [11] was 10.3 µM and the TGI [11] was 27.3 µM. For the same compound, the GI50 [12] was 8.12 µM, the TGI [12] was 21.3 µM and the GI50 [13] was 20.8 µM. It also gave a TGI [13] of 46.2 µM, a GI50 [14] of 24.5 µM and a TGI [14] of 60.2 µM. For the same compound, the GI50 [15] was 10 µM, the TGI [15] was 22 µM and the GI50 [17] was 14.7 µM. The TGI [17] was 29.1 µM, the GI50 [18] was 17.3 µM and the TGI [18] was 32.3 µM. It also gave a GI50 [19] of 22.7 µM, a TGI [19] of 83.3 µM and a GI50 [20] of 17.2 µM. For the same compound, the TGI [20] was 34.3 µM, the GI50 [22] was 10.7 µM and the TGI [22] was 22.5 µM. It also gave a GI50 [23] of 9.79 µM, a TGI [23] of 22 µM and a GI50 [24] of 21.5 µM. The TGI [24] was 59.8 µM, the GI50 [26] was 14.9 µM and the TGI [26] was 29.8 µM. It also gave a GI50 [27] of 4.09 µM, a TGI [27] greater than 100 µM and a GI50 [28] of 16.3 µM. For the same compound, the TGI [28] was 30.4 µM, the GI50 [29] was 12.9 µM and the TGI [29] was 27.1 µM. The GI50 [30] was 14.9 µM, the TGI [30] was 28.2 µM and the GI50 [31] was 20.2 µM. For the same compound, the TGI [31] was 70.5 µM, the GI50 [32] was 14.4 µM and the TGI [32] was 27.5 µM. The GI50 [33] was 26.9 µM, the TGI [33] was greater than 100 µM and the GI50 [34] was 18.1 µM. The TGI [34] was 32.2 µM, the GI50 [35] was 14.8 µM and the TGI [35] was 39.5 µM. It also gave a TGI [36] of 15.9 µM, a GI50 [37] of 13.6 µM and a TGI [37] of 27.4 µM. It also gave a GI50 [38] of 16.8 µM, a TGI [38] of 34.4 µM and a GI50 [39] of 3.36 µM. The TGI [39] was 65.3 µM, the GI50 [40] was 14.9 µM and the TGI [40] was 33.6 µM. It also gave a GI50 [41] of 13.3 µM, a TGI [41] of 26.1 µM and a GI50 [42] of 11.4 µM. The TGI [42] was 28.7 µM, the GI50 [43] was 13.6 µM and the TGI [43] was 26.5 µM. For the same compound, the GI50 [44] was 25.4 µM, the TGI [44] was 97.1 µM and the GI50 [45] was 16.3 µM. It also gave a TGI [45] of 35.9 µM, a GI50 [46] of 15.9 µM and a TGI [46] of 34.5 µM. For the same compound, the GI50 [47] was 5.32 µM, the TGI [47] was 18.4 µM and the GI50 [48] was 13.6 µM. The TGI [48] was 51.3 µM, the GI50 [49] was 17.6 µM and the TGI [49] was 31.4 µM. For the same compound, the GI50 [50] was 28.1 µM, the TGI [50] was 57.8 µM and the GI50 [51] was 17.8 µM. The TGI [51] was 32.4 µM, the GI50 [52] was 20.5 µM and the TGI [52] was 48.4 µM. It also gave a GI50 [53] of 14.2 µM, a TGI [53] of 27.7 µM and a GI50 [54] of 21.8 µM. It also gave a TGI [54] of 51.7 µM, a GI50 [55] of 12.8 µM and a TGI [55] of 30 µM. The GI50 [56] was 21.7 µM, the TGI [56] was 58 µM and the GI50 [58] was 2.8 µM. The TGI [58] was 11 µM.

For `CCOC(=O)C(C)(C)C(O)C(C)C` (stereo not given), the TGI [1] was greater than 100 µM, the TGI [2] was greater than 100 µM and the TGI [3] was greater than 100 µM. For the same compound, the TGI [59] was greater than 100 µM, the TGI [4] was greater than 100 µM and the TGI [5] was greater than 100 µM. It also gave a TGI [6] greater than 100 µM, a TGI [7] greater than 100 µM and a TGI [8] greater than 100 µM. For the same compound, the TGI [9] was greater than 100 µM, the TGI [10] was greater than 100 µM and the TGI [11] was greater than 100 µM. The TGI [12] was greater than 100 µM, the TGI [13] was greater than 100 µM and the TGI [14] was greater than 100 µM. For the same compound, the TGI [15] was greater than 100 µM, the TGI [16] was greater than 100 µM and the TGI [17] was greater than 100 µM. For the same compound, the TGI [18] was greater than 100 µM, the TGI [19] was greater than 100 µM and the TGI [20] was greater than 100 µM. The TGI [21] was greater than 100 µM, the TGI [22] was greater than 100 µM and the TGI [23] was greater than 100 µM. It also gave a TGI [24] greater than 100 µM, a TGI [25] greater than 100 µM and a TGI [26] greater than 100 µM. It also gave a TGI [27] greater than 100 µM, a TGI [28] greater than 100 µM and a TGI [29] greater than 100 µM. It also gave a TGI [30] greater than 100 µM, a TGI [32] greater than 100 µM and a TGI [33] greater than 100 µM. For the same compound, the TGI [34] was greater than 100 µM, the TGI [35] was greater than 100 µM and the TGI [36] was greater than 100 µM. The TGI [37] was greater than 100 µM, the TGI [38] was greater than 100 µM and the TGI [39] was greater than 100 µM. For the same compound, the TGI [40] was greater than 100 µM, the TGI [41] was greater than 100 µM and the TGI [42] was greater than 100 µM. The TGI [43] was greater than 100 µM, the TGI [44] was greater than 100 µM and the TGI [45] was greater than 100 µM. For the same compound, the TGI [46] was greater than 100 µM, the TGI [47] was greater than 100 µM and the TGI [48] was greater than 100 µM. For the same compound, the TGI [49] was greater than 100 µM, the TGI [50] was greater than 100 µM and the TGI [51] was greater than 100 µM. For the same compound, the TGI [52] was greater than 100 µM, the TGI [53] was greater than 100 µM and the TGI [54] was greater than 100 µM. The TGI [55] was greater than 100 µM, the TGI [56] was greater than 100 µM and the TGI [57] was greater than 100 µM. For the same compound, the TGI [58] was greater than 100 µM.

From PubChem BioAssay (NCI)
